In ChEMBL document CHEMBL4219089, “Targeting RORs nuclear receptors by novel synthetic steroidal inverse agonists for autoimmune disorders” (Bioorg Med Chem, 2018):

How the values were obtained:
Estrogen receptor [1] = biological target: T1, Estrogen receptor (Homo sapiens, UniProt P03372); assay: Estrogenic activity at estrogen receptor in human MCF7 cells assessed as increase in GREB1 gene expression at 2 uM after 24 hrs by qRT-PCR analysis; type: ADME, cell-based; conditions: mcf7, 24 h
T1 sequence (P03372 whole entry): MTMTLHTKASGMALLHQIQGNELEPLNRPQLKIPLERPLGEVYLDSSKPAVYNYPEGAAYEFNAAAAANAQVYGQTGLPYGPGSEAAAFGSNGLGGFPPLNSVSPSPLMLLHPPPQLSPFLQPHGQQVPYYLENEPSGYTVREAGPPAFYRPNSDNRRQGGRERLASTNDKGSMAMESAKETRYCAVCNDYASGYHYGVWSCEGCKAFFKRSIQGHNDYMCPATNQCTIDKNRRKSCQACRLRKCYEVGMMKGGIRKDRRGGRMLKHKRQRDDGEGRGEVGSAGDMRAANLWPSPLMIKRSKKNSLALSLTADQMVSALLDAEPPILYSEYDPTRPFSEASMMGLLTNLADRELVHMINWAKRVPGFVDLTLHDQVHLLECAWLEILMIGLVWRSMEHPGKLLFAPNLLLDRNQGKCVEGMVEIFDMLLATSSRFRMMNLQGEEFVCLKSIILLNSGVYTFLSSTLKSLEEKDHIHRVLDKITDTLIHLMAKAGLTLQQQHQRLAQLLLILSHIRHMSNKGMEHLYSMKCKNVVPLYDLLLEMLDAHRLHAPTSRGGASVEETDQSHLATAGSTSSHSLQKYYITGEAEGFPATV

HepG2 [2] = assay: Cytotoxicity against human HepG2 cells assessed as effect on cell viability at 6.25 to 50 uM after 24 hrs by MTT assay; type: cell-based; conditions: hepg2, 24 h
HepG2 [3] = assay: Cell cycle arrest in human HepG2 cells at 10 to 20 uM after 24 hrs by propidium iodide staining based flow cytometric analysis; type: ADME; conditions: hepg2, 24 h
[4] = biological target: T2, Nuclear receptor ROR-gamma (Homo sapiens, UniProt P51449); assay: (§1) Inverse agonist activity at Gal4-fused RORgammat LBD (unknown origin) expressed in HEK293 cells measured after 48 hrs post transfection by dual-luciferase reporter gene assay; type: cell-based
T2 sequence (P51449 whole entry): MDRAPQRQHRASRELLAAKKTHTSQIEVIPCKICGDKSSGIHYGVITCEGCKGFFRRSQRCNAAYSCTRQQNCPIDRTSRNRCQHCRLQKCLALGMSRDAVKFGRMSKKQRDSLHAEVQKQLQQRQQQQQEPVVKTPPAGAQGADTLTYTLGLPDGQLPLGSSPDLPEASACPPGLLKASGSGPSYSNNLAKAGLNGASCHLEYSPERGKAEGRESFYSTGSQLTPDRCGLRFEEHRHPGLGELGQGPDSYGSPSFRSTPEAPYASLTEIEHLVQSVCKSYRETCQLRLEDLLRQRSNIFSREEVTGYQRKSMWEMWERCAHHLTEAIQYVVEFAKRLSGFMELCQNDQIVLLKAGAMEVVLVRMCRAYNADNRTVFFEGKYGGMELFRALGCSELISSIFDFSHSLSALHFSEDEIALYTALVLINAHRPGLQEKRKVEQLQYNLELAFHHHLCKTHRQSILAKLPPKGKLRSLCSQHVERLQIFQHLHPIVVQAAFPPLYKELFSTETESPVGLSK

[5] = biological target: T3, Nuclear receptor ROR-gamma (Homo sapiens) (UniProt P51449); assay: as §1; type: cell-based
T3 sequence (whole entry): T2 sequence (P51449 whole entry)

HEK293 [6] = assay: Cytotoxicity against HEK293 cells expressing GAL4-fused RORgammat assessed as effect on cell viability at 10 to 20 uM after 24 hrs by MTT assay; type: cell-based; conditions: human, hek293, 24 h
Estrogen receptor [7] = biological target: T1, Estrogen receptor; assay: Estrogenic activity at estrogen receptor in human MCF7 cells assessed as increase in CXCL12 gene expression at 2 uM after 24 hrs by qRT-PCR analysis; type: ADME, cell-based; conditions: mcf7, 24 h
HEK293 [8] = assay: Cytotoxicity against HEK293 cells assessed as effect on cell viability at 10 to 20 uM after 24 hrs by MTT assay; type: cell-based; conditions: human, hek293, 24 h
HEK293 [9] = assay: Cell cycle arrest in HEK293 cells at 10 to 20 uM after 24 hrs by propidium iodide staining based flow cytometric method; conditions: human, hek293, 24 h
HEK293 [10] = assay: Cell cycle arrest in HEK293 cells expressing GAL4-fused RORgammat at 10 to 20 uM after 24 hrs by propidium iodide staining based flow cytometric method; type: ADME; conditions: human, hek293, 24 h
HepG2 [11] = assay: Cytotoxicity against human HepG2 cells assessed as effect on cell viability at 25 to 50 uM after 24 hrs by MTT assay; type: cell-based; conditions: hepg2, 24 h
HepG2 [12] = assay: Cytotoxicity against human HepG2 cells assessed as effect on cell viability at 6.25 uM after 24 hrs by MTT assay; type: cell-based; conditions: hepg2, 24 h

Which results are given for `COc1cc2c(cc1C13CC4CC(CC(C4)C1)C3)[C@H]1CC[C@]3(C)C=C(C(=O)O)C[C@H]3[C@@H]1CC2`?
Activity (Estrogen receptor [1]): Not Active; Activity (HepG2 [2]): Non-Toxic; Activity (HepG2 [3]): Non-Toxic; IC50 [4]: 6.8 µM; Activity [5]: Dose-dependent effect; Activity (HEK293 [6]): Non-Toxic; Activity (Estrogen receptor [7]): Not Active; Activity (HEK293 [8]): Non-Toxic; Activity (HEK293 [9]): Non-Toxic; Activity (HEK293 [10]): Non-Toxic

Which Activity (HepG2 [2]) does the source give for `C[C@]12CC[C@@H]3c4cc(-c5cccc6c5oc5ccccc56)c(O)cc4CC[C@H]3[C@@H]1CC(C(=O)O)C2O` (stereo not given in full) here?
Its Activity is “Non-Toxic”.

And the Activity (HepG2 [3])?
Its Activity is “Non-Toxic”.

And the IC50 [4]?
The IC50 was 4.7 µM.

And the Activity [5]?
The Activity was “Dose-dependent effect”.

What about the Activity (HEK293 [6]) of the same compound?
Its Activity is “Non-Toxic”.

And the Activity (HEK293 [8])?
Its Activity is “Non-Toxic”.

What about the Activity (HEK293 [9]) of the same compound?
The Activity was “Non-Toxic”.

And the Activity (HEK293 [10])?
The Activity was “Non-Toxic”.

`C[C@@]12C=C(C(=O)O)C[C@H]1[C@@H]1CCc3cc(O)c(C(=O)c4ccccc4)cc3[C@H]1CC2` was tested. Which Activity (Estrogen receptor [1]) did it give?
The Activity was “Not Active”.

And the Activity (HepG2 [3])?
The Activity was “Non-Toxic”.

What about the IC50 [4] of the same compound?
Its IC50 is 4.4 µM.

What about the Activity [5] of the same compound?
The Activity was “Dose-dependent effect”.

What about the Activity (HepG2 [11]) of the same compound?
The Activity was “Toxic”.

What about the Activity (HEK293 [6]) of the same compound?
Its Activity is “Non-Toxic”.

And the Activity (Estrogen receptor [7])?
The Activity was “Not Active”.

What about the Activity (HEK293 [8]) of the same compound?
Its Activity is “Non-Toxic”.

And the Activity (HEK293 [9])?
The Activity was “Non-Toxic”.

What about the Activity (HEK293 [10]) of the same compound?
The Activity was “Non-Toxic”.

`C[C@]12CC[C@@H]3c4cc(-c5ccccc5)c(O)cc4CC[C@H]3[C@@H]1CC(C(=O)O)C2O` (stereo not given in full) was tested. Which Activity (HepG2 [12]) did it give?
The Activity was “Toxic”.

For `C[C@@]12C=C(C(=O)O)C[C@H]1[C@@H]1CCc3cc(O)c(C45CC6CC(CC(C6)C4)C5)cc3[C@H]1CC2`, which Activity (Estrogen receptor [1]) is on record?
Its Activity is “Active”.

And the Activity (HepG2 [2])?
The Activity was “Non-Toxic”.

And the Activity (HepG2 [3])?
The Activity was “Non-Toxic”.

What about the IC50 [4] of the same compound?
Its IC50 is 6.5 µM.

What about the Activity [5] of the same compound?
Its Activity is “Dose-dependent effect”.

And the Activity (HEK293 [6])?
The Activity was “Non-Toxic”.

And the Activity (Estrogen receptor [7])?
Its Activity is “Active”.

And the Activity (HEK293 [8])?
Its Activity is “Non-Toxic”.

And the Activity (HEK293 [9])?
The Activity was “Non-Toxic”.

What about the Activity (HEK293 [10]) of the same compound?
Its Activity is “Non-Toxic”.

For `C[C@]12CC[C@@H]3c4cc(-c5ccc(-c6ccccc6)cc5)c(O)cc4CC[C@H]3[C@@H]1CC(C(=O)O)C2O` (stereo not given in full), which Activity (HepG2 [12]) is on record?
Its Activity is “Toxic”.
